Assay: direct peptide reactivity assay (DPRA), in-chemico, unbound peptide detected with Ellman's reagent
Settings: 24 h reaction; allergen 5 mM, peptide 0.5 mM; absorbance at 415 nm with DTNB; urushiol structures I-V; n = 3; FIG. 2
Method: The absorbance is plotted on the y-axis. The peptide-allergen reactions were realized according to a direct peptide reactivity assay. The test is referred to as the in-chemico method, that is to say no cells are used, but a chemical reaction is carried out.
The direct peptide reaction assay (DPRA) is an OECD-validated test method.
The native, still-unbound peptide is detected by reaction with Ellman’s reagent and corresponding absorbance measurement. The direct peptide reactivity assay (DPRA) is a chemical method for predicting epidermal protein binding. DPRA uses for example HPLC to measure the depletion of peptides in solution after exposure to test chemicals.
RFAACAA was selected as an example of a peptide of the invention.
In the DPRA method, the absorbance at 415 nm is determined as the measured variable.
The allergen concentration is in the investigations carried out a standard 5 mM and thus 10 times the concentration of the peptide used (0.5 mM).
The reaction courses shown were determined colorimetrically through the reaction of the peptide with Ellmann’s reagent in a photometer. In this reaction, DTNB ((5,5′-dithiobis-2-nitrobenzoic acid, Ellmann’s reagent) is cleaved and attached to the SH residue of the amino acid cysteine of the peptides of the invention (RFAACAA).
The SH radical is at the same time the reactive binding site of the peptide with the allergens. […]

**Q.** With RFAACAA [Arg Phe Ala Ala Cys Ala Ala] as the substance, how does the “reactivity of peptides with urushiol allergens (fall in peptide, protective activity)” value read?
**A.** very high reactivity

**Q.** Which “reactivity of peptides with urushiol allergens (fall in peptide, protective activity)” value does the source give for “acetyl-arginine-phenylalanine-alanine-alanine-cysteine-alanine-alanine [Ac-RFAACAA]” here?
**A.** very high reactivity
